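Briefly, cells in 96-well plates were exposed to five compound concentrations for 48 h, and endpoints were estimated by linear interpolation. Here, GI50 denotes the concentration required for 50% inhibition of growth.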 The source made the active and inactive calls. No stated cut-off is given here; in the data, active = GI50 up to about 1.1 µM and inactive = higher.
Assays:
Assay in all cases: DTP human tumour cell line panel, 48 h
UO-31 = system: UO-31
SW-620 = system: SW-620
HOP-62 = system: HOP-62
TK-10 = system: TK-10
KM-20L2 = system: KM-20L2
OVCAR-8 = system: OVCAR-8
HCT-15 = system: HCT-15
SF-295 = system: SF-295
DMS-273 = system: DMS-273
COLO 205 = system: COLO 205
Malme-3M = system: Malme-3M
786-0 = system: 786-0
A549 = system: A549
SF-268 = system: SF-268
LXFL 529 = system: LXFL 529
M14 = system: M14
NCI-H522 = system: NCI-H522
DMS-114 = system: DMS-114
SF-539 = system: SF-539
SNB-19 = system: SNB-19
SK-MEL-2 = system: SK-MEL-2
OVCAR-5 = system: OVCAR-5
M19-MEL = system: M19-MEL
RXF 631 = system: RXF 631
SNB-75 = system: SNB-75
NCI-H23 = system: NCI-H23
UACC-257 = system: UACC-257
HT-29 = system: HT-29
SK-MEL-5 = system: SK-MEL-5
OVCAR-3 = system: OVCAR-3
EKVX = system: EKVX
RXF 393 = system: RXF 393
SK-OV-3 = system: SK-OV-3
CCRF-CEM = system: CCRF-CEM
MOLT-4 = system: MOLT-4
SNB-78 = system: SNB-78
KM12 = system: KM12
SK-MEL-28 = system: SK-MEL-28
SN12C = system: SN12C
HOP-92 = system: HOP-92
K562 = system: K562
U-251 = system: U-251
NCI-H226 = system: NCI-H226
IGROV-1 = system: IGROV-1
LOX IMVI = system: LOX IMVI
UACC-62 = system: UACC-62
XF498 = system: XF498
OVCAR-4 = system: OVCAR-4
RPMI-8226 = system: RPMI-8226
HCT-116 = system: HCT-116
HOP-18 = system: HOP-18
CAKI-1 = system: CAKI-1
NCI-H460 = system: NCI-H460
HL-60 = system: HL-60
DLD-1 = system: DLD-1
SR = system: SR
HCC 2998 = system: HCC 2998
A498 = system: A498
ACHN = system: ACHN

`COc1cc2ccc(CC(N)=O)cc2cc1OC` was tested, and the GI50 (UO-31) was > 100 µM (inactive), the GI50 (SW-620) was > 100 µM (inactive) and the GI50 (HOP-62) was > 100 µM (inactive). For the same molecule, the GI50 (TK-10) was > 100 µM (inactive), the GI50 (KM-20L2) was > 100 µM (inactive) and the GI50 (OVCAR-8) was > 100 µM (inactive). For the same molecule, the GI50 (HCT-15) was > 100 µM, the GI50 (SF-295) was > 100 µM (inactive) and the GI50 (DMS-273) was > 100 µM (inactive). The GI50 (COLO 205) was > 100 µM (inactive), the GI50 (Malme-3M) was > 100 µM (inactive) and the GI50 (786-0) was > 100 µM (inactive). The GI50 (A549) was > 100 µM (inactive), the GI50 (SF-268) was > 100 µM (inactive) and the GI50 (LXFL 529) was > 100 µM (inactive). The GI50 (M14) was > 100 µM (inactive), the GI50 (NCI-H522) was > 100 µM (inactive) and the GI50 (DMS-114) was > 100 µM (inactive). For the same molecule, the GI50 (SF-539) was > 100 µM (inactive), the GI50 (SNB-19) was > 100 µM (inactive) and the GI50 (SK-MEL-2) was > 100 µM (inactive). The GI50 (OVCAR-5) was > 100 µM (inactive), the GI50 (M19-MEL) was > 100 µM (inactive) and the GI50 (RXF 631) was > 100 µM (inactive). The GI50 (SNB-75) was 40.3 µM (inactive), the GI50 (NCI-H23) was > 100 µM (inactive) and the GI50 (UACC-257) was > 100 µM (inactive). For the same molecule, the GI50 (HT-29) was > 100 µM (inactive), the GI50 (SK-MEL-5) was > 100 µM (inactive) and the GI50 (OVCAR-3) was > 100 µM (inactive). For the same molecule, the GI50 (EKVX) was > 100 µM (inactive), the GI50 (RXF 393) was > 100 µM (inactive) and the GI50 (SK-OV-3) was > 100 µM (inactive). The GI50 (CCRF-CEM) was > 100 µM (inactive), the GI50 (MOLT-4) was > 100 µM (inactive) and the GI50 (SNB-78) was > 100 µM (inactive). For the same molecule, the GI50 (KM12) was > 100 µM (inactive), the GI50 (SK-MEL-28) was > 100 µM (inactive) and the GI50 (SN12C) was > 100 µM (inactive). The GI50 (HOP-92) was > 100 µM (inactive), the GI50 (K562) was > 100 µM (inactive) and the GI50 (U-251) was > 100 µM (inactive). For the same molecule, the GI50 (NCI-H226) was > 100 µM (inactive), the GI50 (IGROV-1) was > 100 µM (inactive) and the GI50 (LOX IMVI) was > 100 µM (inactive). The GI50 (UACC-62) was > 100 µM (inactive), the GI50 (XF498) was > 100 µM (inactive) and the GI50 (OVCAR-4) was > 100 µM (inactive). The GI50 (RPMI-8226) was > 100 µM (inactive), the GI50 (HCT-116) was > 100 µM (inactive) and the GI50 (HOP-18) was > 100 µM (inactive).
In the case of `COC(=O)C(Cc1nc2ccc(Cl)cc2nc1O)C(=O)C(=O)Nc1cc(C)ccc1C` (stereo not drawn), the GI50 (UO-31) is reported as > 100 µM (inactive), the GI50 (SW-620) is reported as > 100 µM (inactive) and the GI50 (HOP-62) is reported as > 100 µM (inactive). For the same molecule, the GI50 (CAKI-1) was > 100 µM (inactive), the GI50 (TK-10) was > 100 µM (inactive) and the GI50 (KM-20L2) was > 100 µM (inactive). The GI50 (OVCAR-8) was > 100 µM (inactive), the GI50 (HCT-15) was > 100 µM and the GI50 (SF-295) was > 100 µM (inactive). For the same molecule, the GI50 (DMS-273) was > 100 µM (inactive), the GI50 (COLO 205) was > 100 µM (inactive) and the GI50 (Malme-3M) was > 100 µM (inactive). For the same molecule, the GI50 (NCI-H460) was > 100 µM (inactive), the GI50 (786-0) was > 100 µM (inactive) and the GI50 (A549) was > 100 µM (inactive). The GI50 (SF-268) was > 100 µM (inactive), the GI50 (HL-60) was > 100 µM (inactive) and the GI50 (LXFL 529) was > 100 µM (inactive). For the same molecule, the GI50 (M14) was > 100 µM (inactive), the GI50 (NCI-H522) was > 100 µM (inactive) and the GI50 (DLD-1) was > 100 µM (inactive). The GI50 (DMS-114) was > 100 µM (inactive), the GI50 (SF-539) was > 100 µM (inactive) and the GI50 (SNB-19) was > 100 µM (inactive). The GI50 (SK-MEL-2) was > 100 µM (inactive), the GI50 (OVCAR-5) was > 100 µM (inactive) and the GI50 (M19-MEL) was > 100 µM (inactive). For the same molecule, the GI50 (RXF 631) was > 100 µM (inactive), the GI50 (SNB-75) was > 100 µM (inactive) and the GI50 (NCI-H23) was > 100 µM (inactive). For the same molecule, the GI50 (UACC-257) was > 100 µM (inactive), the GI50 (HT-29) was > 100 µM (inactive) and the GI50 (SK-MEL-5) was > 100 µM (inactive). The GI50 (OVCAR-3) was > 100 µM (inactive), the GI50 (EKVX) was 8.2 µM (inactive) and the GI50 (RXF 393) was > 100 µM (inactive). The GI50 (SK-OV-3) was > 100 µM (inactive), the GI50 (SR) was > 100 µM (inactive) and the GI50 (CCRF-CEM) was > 100 µM (inactive). For the same molecule, the GI50 (MOLT-4) was > 100 µM (inactive), the GI50 (SNB-78) was > 100 µM (inactive) and the GI50 (KM12) was > 100 µM (inactive). For the same molecule, the GI50 (HCC 2998) was > 100 µM (inactive), the GI50 (SK-MEL-28) was > 100 µM (inactive) and the GI50 (SN12C) was > 100 µM (inactive). The GI50 (K562) was > 100 µM (inactive), the GI50 (U-251) was > 100 µM (inactive) and the GI50 (NCI-H226) was > 100 µM (inactive). The GI50 (IGROV-1) was > 100 µM (inactive), the GI50 (LOX IMVI) was > 100 µM (inactive) and the GI50 (A498) was > 100 µM (inactive). The GI50 (UACC-62) was > 100 µM (inactive), the GI50 (XF498) was > 100 µM (inactive) and the GI50 (OVCAR-4) was > 100 µM (inactive). The GI50 (RPMI-8226) was > 100 µM (inactive), the GI50 (HCT-116) was > 100 µM (inactive) and the GI50 (ACHN) was > 100 µM (inactive). The GI50 (HOP-18) was > 100 µM (inactive).
With `COC(=O)C(CC(C)=O)CS(=O)(=O)CC(=O)C(=O)Nc1cccc([N+](=O)[O-])c1` (stereo not drawn) the GI50 (UO-31) was > 100 µM (inactive), the GI50 (SW-620) was > 100 µM (inactive) and the GI50 (HOP-62) was > 100 µM (inactive). The GI50 (CAKI-1) was > 100 µM (inactive), the GI50 (TK-10) was > 100 µM (inactive) and the GI50 (KM-20L2) was > 100 µM (inactive). For the same molecule, the GI50 (OVCAR-8) was > 100 µM (inactive), the GI50 (HCT-15) was > 100 µM and the GI50 (DMS-273) was > 100 µM (inactive). For the same molecule, the GI50 (COLO 205) was > 100 µM (inactive), the GI50 (Malme-3M) was > 100 µM (inactive) and the GI50 (NCI-H460) was > 100 µM (inactive). For the same molecule, the GI50 (786-0) was > 100 µM (inactive), the GI50 (A549) was > 100 µM (inactive) and the GI50 (SF-268) was > 100 µM (inactive). For the same molecule, the GI50 (LXFL 529) was > 100 µM (inactive), the GI50 (M14) was > 100 µM (inactive) and the GI50 (NCI-H522) was > 100 µM (inactive). The GI50 (DLD-1) was > 100 µM (inactive), the GI50 (DMS-114) was > 100 µM (inactive) and the GI50 (SF-539) was > 100 µM (inactive). For the same molecule, the GI50 (SNB-19) was > 100 µM (inactive), the GI50 (SK-MEL-2) was > 100 µM (inactive) and the GI50 (OVCAR-5) was > 100 µM (inactive). The GI50 (M19-MEL) was > 100 µM (inactive), the GI50 (RXF 631) was > 100 µM (inactive) and the GI50 (SNB-75) was > 100 µM (inactive). For the same molecule, the GI50 (NCI-H23) was > 100 µM (inactive), the GI50 (UACC-257) was > 100 µM (inactive) and the GI50 (SK-MEL-5) was > 100 µM (inactive). For the same molecule, the GI50 (OVCAR-3) was > 100 µM (inactive), the GI50 (EKVX) was > 100 µM (inactive) and the GI50 (RXF 393) was > 100 µM (inactive). For the same molecule, the GI50 (SK-OV-3) was > 100 µM (inactive), the GI50 (CCRF-CEM) was > 100 µM (inactive) and the GI50 (SNB-78) was > 100 µM (inactive). The GI50 (KM12) was > 100 µM (inactive), the GI50 (HCC 2998) was > 100 µM (inactive) and the GI50 (SK-MEL-28) was > 100 µM (inactive). The GI50 (SN12C) was > 100 µM (inactive), the GI50 (HOP-92) was > 100 µM (inactive) and the GI50 (K562) was > 100 µM (inactive). The GI50 (U-251) was > 100 µM (inactive), the GI50 (NCI-H226) was > 100 µM (inactive) and the GI50 (IGROV-1) was > 100 µM (inactive). For the same molecule, the GI50 (LOX IMVI) was > 100 µM (inactive), the GI50 (A498) was > 100 µM (inactive) and the GI50 (UACC-62) was > 100 µM (inactive). For the same molecule, the GI50 (XF498) was 55.6 µM (inactive), the GI50 (OVCAR-4) was > 100 µM (inactive) and the GI50 (RPMI-8226) was > 100 µM (inactive). The GI50 (HCT-116) was > 100 µM (inactive), the GI50 (ACHN) was > 100 µM (inactive) and the GI50 (HOP-18) was > 100 µM (inactive).

From ChEMBL document CHEMBL1201862, “PubChem BioAssay data set” (2004)
